Measured values as given in US20100137239A1, “GEMCITABINE COMBINATION THERAPY” (GLOUCESTER PHARMACEUTICALS, priority 2006, published 2010).
“And” between values parts separate entries of the source, which are not always exact repeats. Equal entries are not always repeated.

Key:
[1] = PANC-1 study: animal weight and drug toxicity
Text: (§1) Model Information—Female nude mice (nu/nu) between 5 and 6 weeks of age weighing approximately 20 grams were obtained from Harlan, Inc. (Madison, Wis.). PANC-1, obtained from the ATCC, is a pancreas tumor cell line originating from a person^(1-2). BxPC-3, obtained from the American Type Culture Collection (ATCC), is a pancreas tumor cell line originating from a person^(3-4). PANC-1 Study: Animals were implanted subcutaneously (SC) by trocar with fragments of PANC-1 harvested from SC growing tumors in nude mice hosts. When tumors grew to approximately 135 cubic millimeters (mm^3) in size (17 days following implantation, animals were pair-matched by tumor size into treatment and control groups; each treatment group contained nine mice. BxPC-3 Study: Animals were implanted subcutaneously (SC) by trocar with fragments of BxPC-3 harvested from SC growing tumors in nude mice hosts. When tumors grew to approximately 85 cubic millimeters (mm^3) in size (19 days following implantation), animals were pair-matched by tumor size into treatment and control groups; each treatment group contained nine mice. Animals in both studies were ear-tagged and followed individually throughout the experiment.
(§2) Study Design and Dosing—Initial doses were administered on Day 1 following pair-matching; both experiments were carried out as tumor growth inhibition (TGT) studies. Animals were dosed intravenously (IV) via tail vein with FK228 once every four days for three treatments (Q4Dx3) or by intraperitoneal (IP) injection with gemcitabine once every three days for four treatments (Q3Dx4), either alone or in combination, at the doses listed below (Table 1). To serve as a negative control, FK228 vehicle (2% ethanol, 8% propylene glycol, 90% 0.9% saline) was injected on a Q4Dx3 schedule.
(§3) Animal Weights—Individual and group mean weights ±SD and percent weight change through Day 25 (PANC-1) or Day 29 (BxPC-3) were recorded twice weekly until study completion beginning Day 1. Final group mean weights ±SD and group nadir values are reported; weight data from individual animals experiencing technical or drug-related deaths was censored from final group calculations.
(§4) Moribundity/Mortality—Animals were observed twice weekly for general moribundity and daily for mortality. Animal deaths were assessed as drug-related or technical based on factors including gross observation and weight loss; reported animal death information includes type, number, and day of death for each group.
(§5) Statistics—Statistical analyses were carried out between treated and control groups comparing final weight, percent weight change, and tumor growth inhibition (Appendix III). For these groups, a two-tailed One-Way Analysis of Variance (ANOVA) followed by the Dunnett multiple comparisons test was employed. All analyses are performed using GraphPad Prism® software (version 4.0). Weight and tumor data from individual animals experiencing technical or drug-related deaths was censored from analysis.

[2] = test system: Panc-1 human pancreas tumors; test: Panc-1 mouse xenograft tumor growth (Example 1); type: in vivo; settings: for tumor growth inhibition: Panc-1 xenograft in female nude mice, FK228 IV Q4Dx3, gemcitabine IP Q3Dx4, vs vehicle control
Protocol: In this study, female nude mice were implanted subcutaneously (SC) by trocar with Panc-1 tumor fragments harvested from SC growing tumors in nude mice hosts. […] The day of treatment initiation was specified as Day 1. Vehicle control and FK228 were administered intravenously on a Q4Dx3 schedule (Days 1, 5, and 9). Gemcitabine was administered by an intraperitoneal injection on a Q3Dx4 schedule (Days 1, 4, 7, 10). Tumors were measured by Vernier calipers twice weekly.

[3] = BxPC-3 study: animal weight and drug toxicity
Text: as §1, §2, §3, §4, §5

[4] = FK228 2.5 mg/kg IV Q4Dx3, 2.5 mg/kg
[5] = FK228 5 mg/kg IV Q4Dx3, 5 mg/kg

C/C=C1\NC(=O)[C@H]2CSSCC/C=C/[C@H](CC(=O)N[C@H](C(C)C)C(=O)N2)OC(=O)[C@H](C(C)C)NC1=O [FK228, romidepsin]
FINAL WEIGHT (DAY 25) % CHANGE ([1]; FK228 2.5 mg/kg IV Q4Dx3): +8%
WEIGHT NADIR % CHANGE ([1]; FK228 2.5 mg/kg IV Q4Dx3): −9%
WEIGHT NADIR DAY ([1]; FK228 2.5 mg/kg IV Q4Dx3): 11
DRUG DEATHS TOTAL [1, 4]: 0/9 and 0
FINAL WEIGHT (DAY 25) MEAN(G) ± SD [1, 4]: 21 ± 2 G
FINAL WEIGHT (DAY 25) % CHANGE ([1]; FK228 5 mg/kg IV Q4Dx3): +9%
WEIGHT NADIR % CHANGE ([1]; FK228 5 mg/kg IV Q4Dx3): −12%
WEIGHT NADIR DAY ([1]; FK228 5 mg/kg IV Q4Dx3): 11
DRUG DEATHS TOTAL [1, 5]: 0/9 and 0
FINAL WEIGHT (DAY 25) MEAN(G) ± SD [1, 5]: 25±2 G
tumor growth inhibition [2]: 26%
FINAL WEIGHT (DAY 29) % CHANGE ([3]; FK228 2.5 mg/kg IV Q4Dx3): +10%
WEIGHT NADIR % CHANGE ([3]; FK228 2.5 mg/kg IV Q4Dx3): −5%
WEIGHT NADIR DAY ([3]; FK228 2.5 mg/kg IV Q4Dx3): 11
DRUG DEATHS TOTAL [3, 4]: 0/9 and 0
FINAL WEIGHT (DAY 29) MEAN(G) ± SD [3, 4]: 25±2 G
FINAL WEIGHT (DAY 29) % CHANGE ([3]; FK228 5 mg/kg IV Q4Dx3): +7%
WEIGHT NADIR % CHANGE ([3]; FK228 5 mg/kg IV Q4Dx3): −15%
WEIGHT NADIR DAY ([3]; FK228 5 mg/kg IV Q4Dx3): 11
DRUG DEATHS TOTAL [3, 5]: 0/9 and 0
FINAL WEIGHT (DAY 29) MEAN(G) ± SD [3, 5]: 24±1 G

Nc1ccn([C@@H]2O[C@H](CO)[C@@H](O)C2(F)F)c(=O)n1 [Gemcitabine, gemcitabine]
DRUG DEATHS TOTAL ([1]; Gemcitabine 40 mg/kg IP Q3Dx4): 0/9 and 0
FINAL WEIGHT (DAY 25) % CHANGE ([1]; Gemcitabine 40 mg/kg IP Q3Dx4): +7%
FINAL WEIGHT (DAY 25) MEAN(G) ± SD ([1]; Gemcitabine 40 mg/kg IP Q3Dx4): 24±1 G
WEIGHT NADIR % CHANGE ([1]; Gemcitabine 40 mg/kg IP Q3Dx4): −2%
WEIGHT NADIR DAY ([1]; Gemcitabine 40 mg/kg IP Q3Dx4): 11
DRUG DEATHS TOTAL ([1]; Gemcitabine 80 mg/kg IP Q3Dx4): 0/9 and 0
FINAL WEIGHT (DAY 25) % CHANGE ([1]; Gemcitabine 80 mg/kg IP Q3Dx4): +12%
FINAL WEIGHT (DAY 25) MEAN(G) ± SD ([1]; Gemcitabine 80 mg/kg IP Q3Dx4): 26±3 G
WEIGHT NADIR % CHANGE ([1]; Gemcitabine 80 mg/kg IP Q3Dx4): −3%
WEIGHT NADIR DAY ([1]; Gemcitabine 80 mg/kg IP Q3Dx4): 11
tumor growth inhibition [2]: 50%
animals with tumor regression ([2]; Panc-1 xenograft, N=9 mice per group): no regression
DRUG DEATHS TOTAL ([3]; Gemcitabine 40 mg/kg IP Q3Dx4): 0/9 and 0
FINAL WEIGHT (DAY 29) % CHANGE ([3]; Gemcitabine 40 mg/kg IP Q3Dx4): +9%
weight loss (nadir) ([3]; Gemcitabine 40 mg/kg IP Q3Dx4): No weight loss
DRUG DEATHS TOTAL ([3]; Gemcitabine 80 mg/kg IP Q3Dx4): 0/9 and 0
FINAL WEIGHT (DAY 29) % CHANGE ([3]; Gemcitabine 80 mg/kg IP Q3Dx4): +1%
FINAL WEIGHT (DAY 29) MEAN(G) ± SD ([3]; Gemcitabine 80 mg/kg IP Q3Dx4): 22±4 G and 22 + 4 G
WEIGHT NADIR % CHANGE ([3]; Gemcitabine 80 mg/kg IP Q3Dx4): −9%
WEIGHT NADIR DAY ([3]; Gemcitabine 80 mg/kg IP Q3Dx4): 11
